# Test results taken from patent US11331290B2, “Niclosamide for the treatment of cancer metastasis” (Max-Delbrück-Centrum für Molekulare Medizin in der …, priority 2011, dated 2022).
# What was measured:
# [1] = test system: S100A4 protein; test: S100A4 protein expression by immunoblot; type: cell-based, human; conditions: for S100A4 protein expression: 1 μM
# Procedure: For total protein extraction cells were lysed with RIPA buffer (50 mM Tris-HCl, 150 mM NaCl, 1% Nonidet P-40, supplemented with complete protease inhibitor tablets; Roche) for 30 minutes on ice. For isolation of the nuclear protein fraction, the NE-PER Nuclear and Cytoplasmic Extraction Kit (Pierce) was used according to the manufacturer's instructions. Protein concentration was quantified with Bicinchoninic Acid (BCA) Protein Assay Reagent (Pierce) according to manufacturer's instructions and lysates of equal protein concentration were separated with SDS-PAGE and transferred to Hybond C Extra nitrocellulose membrane (Amersham Biosciences). Membranes were incubated in blocking solution containing 5% nonfat dry milk and 1% bovine serum albumin (BSA) for 1 hour at room temperature. Membranes were incubated overnight at 4° C. with rabbit anti-human-S100A4 antibody (dilution, 1:1500), mouse anti-human-CTNNB1 antibody (dilution, 1:1000), mouse anti-human TUBB1 antibody (dilution, 1:1000), goat anti-human GAPDH antibody (dilution, 1:500) or mouse anti-human PCNA antibody (dilution, 1:1000) followed by incubation for 1 hour at room temperature with HRP-conjugated anti-goat (dilution, 1:10000), anti-rabbit (dilution, 1:10000), anti-mouse IgG (dilution, 1:10000) or anti-mouse IgM (dilution, 1:10000) antibody. Antibody-protein-complexes were visualized with electrochemical-luminescence (ECL) reagent (100 mM Tris-HCl, 0.025% w/v luminol, 0.011% w/v para-hydroxycoumaric acid, 10% v/v dimethylsulfoxide, 0.004% v/v H2O2, pH 8.6) and subsequent exposure to CL-XPosure™ Films (Pierce) for 1 second to 20 minutes. Immunoblotting for GAPDH and PCNA served as protein loading control. Immunoblotting for β-tubulin was used to control that nuclear extracts were free from cytoplasmatic protein. All experiments were performed at least three independent times.
# (A) Determination of the cytotoxicity of niclosamide on HCT116 cells. Cells were treated with increasing concentrations of niclosamide for 24 hours and cell viability was measured. (B) Effect of increasing concentrations of niclosamide on S100A4 expression. HCT116 cells were treated with increasing concentrations of niclosamide for 24 hours. S100A4 expression was determined by quantitative reverse-transcription-polymerase chain reaction (qRT-PCR) and immunoblot. (C) Time-dependency of niclosamide effect on S100A4 expression. HCT116 cells were treated with a single dose of 1 μM niclosamide for 24 hours and S100A4 expression was analyzed by qRT-PCR and immunoblot at indicated time points. Black bar indicates the chosen treatment conditions for further experiments. (D) Effect of daily doses of niclosamide on S100A4 expression. HCT116 cells were treated daily with 1 μM niclosamide and S100A4 expression was analyzed by qRT-PCR and immunoblot. Data is given as mean±SD (n>2). Differences in treated groups were compared with the control group by two-sided one-way analysis of variances and Bonferroni post hoc multiple comparison test.
# (E) Effect of niclosamide in HCT116-vector and HCT116-S100A4 cells. HCT116-vector and HCT116-S100A4 cells were treated with 1 μM niclosamide for 24 hours and S100A4 expression was analyzed by qRT-PCR and immunoblot. Data is given as mean±SD (n>2). Comparison of niclosamide vs. solvent-treated cells was analyzed with Student's t test.
# (A) S100A4 expression under niclosamide treatment. Cells were treated with 1 μM niclosamide for 24 hours. S100A4 expression was analyzed with qRT-PCR and immunoblot. (B) Cell migration under niclosamide treatment. Migration rates of cells treated with 1 μM niclosamide for 24 hours were determined in a Boyden chamber assay values were normalized to solvent-treated SW620 cells. (C) Cell invasion under niclosamide treatment. Cells were seeded onto Matrigel covered transwells and treated with 1 μM niclosamide for 24 hours. Invaded cells in the lower chamber were counted and normalized to solvent-treated SW620 cells. […]
# [2] = test system: SW620, LS174T, SW480 and DLD-1 cells; test: Wound healing assay (directed migration); type: cell-based, human; conditions: 1 μM daily, 4 days, vs respective solvent-treated control
# Procedure: For wound healing assay HCT116, SW620, LS174T, SW480 and DLD-1 cells were grown to form 60% confluent monolayers of cells in which a wound of about 300 μm width was inflicted with a sterile pipette tip. The medium was exchanged to remove non-adherent cells and the wounded monolayer was treated with 1 μM niclosamide or the respective amount of DMSO every 24 hours for 4 consecutive days. The progress of wound closure was monitored with microphotographs of 10× magnification taken with the Leica DM IL light microscope (Leica Microsystems) on day 0 and day 4. The wound healing experiment was performed three independent times.
# (A) S100A4 expression under niclosamide treatment. […] S100A4 expression was analyzed with qRT-PCR and immunoblot. […] Migration rates of cells treated with 1 μM niclosamide for 24 hours were determined in a Boyden chamber assay values were normalized to solvent-treated SW620 cells. […] Invaded cells in the lower chamber were counted and normalized to solvent-treated SW620 cells. Differences in solvent vs. niclosamide-treated cells were analyzed by Student's t test. […] The amount of viable cells per well was determined by MTT assay. […] (G) Quantification of colonies formed. Number of colonies (of more than 4 cells) was counted and normalized to solvent-treated SW620 cells. Differences in solvent vs. niclosamide-treated cells were analyzed by Student's t test. […]
smiles,measurement,setting,value
"O=C(Nc1ccc([N+](=O)[O-])cc1Cl)c1cc(Cl)ccc1O [niclosamide, 2′,5-dichloro-4′-nitrosalicylanilide]",S100A4 protein expression,"[1]; DLD-1 cells, 24 h (solvent and niclosamide-treated)",no S100A4 protein was detected
same,S100A4 protein level,"[1]; HCT116, 0.1 μM to 2.5 μM, 24 h",reduced in a concentration-dependent manner
same,"S100A4 protein level, % of solvent-treated control cells","[1]; HCT116, 1 μM daily",approximately 50%
same,S100A4 protein,"[1]; HCT116, three days following discontinuation of niclosamide treatment",clearly reduced
same,S100A4 protein level,"[1]; HCT116-S100A4, 1 μM, 24 h",no reduction
same,activity at 1 µM,"[1]; Homo sapiens, HCT-116, HCT116, 1 μM, single dose, 24 hours, read-out: S100A4 protein level, % of control",< 50%
same,S100A4 protein expression,"[1]; SW620, LS174T and SW480 cells, 24 h",reduced
same,directed migration (wound healing),[2],impaired
